# US9212206B1, “4-Fluoro-Thio-containing inhibitors of APP2, compositions thereof and method of use” (priority 2014, dated 2015)
# Legend:
# [1] = molecular target: Human recombinant angiotensin-converting enzyme (hrACE) (Homo sapiens (Human), UniProt P12821); assay: Determination of human ACE activity (quenched fluorescent substrate ES005); format: biochemical; conditions: for IC50: hrACE, substrate below Km, pH 7.4, 30° C., read-out: Binding affinity (IC50) ACE
# Method: Human recombinant angiotensin-converting enzyme (hrACE) was obtained from R&D Systems (Minneapolis, Minn.). Its enzyme activity was determined using the internally quenched fluorescent substrate ES005: (7-methoxycoumarin-4-yl)acetyl-Arg-Pro-Pro-Gly-Phe-Ser-Ala-Phe-(2,4-dinitrophenyl)-Lys (R&D Systems, Minneapolis, Minn.). The assay buffer was 0.1 M HEPES, pH 7.4, and the temperature was 30° C. The substrate concentration was below Km (≦40 μM). Enzyme rates were determined in an Fmax fluorescence plate reader (Molecular Devices, Sunnyvale, Calif.) using an excitation wavelength of 320 nm and an emission wavelength of 405 nm. The binding affinity of an inhibitor was estimated and expressed as IC50 values (the concentration that inhibits activity by 50%).
# [2] = molecular target: Human aminopeptidase P2 (APP2) (Homo sapiens (Human), UniProt O43895); assay: Determination of human APP2 activity (quenched fluorescent substrate); format: biochemical; conditions: for IC50: purified human kidney APP2, substrate 1 μM (=Km), pH 7.4, 30° C., read-out: Binding affinity (IC50) APP2; for IC50 ratio ACE/APP2: selectivity, ratio of IC50s for ACE/APP2
# Chain of Human aminopeptidase P2 (APP2) (O43895 22-674): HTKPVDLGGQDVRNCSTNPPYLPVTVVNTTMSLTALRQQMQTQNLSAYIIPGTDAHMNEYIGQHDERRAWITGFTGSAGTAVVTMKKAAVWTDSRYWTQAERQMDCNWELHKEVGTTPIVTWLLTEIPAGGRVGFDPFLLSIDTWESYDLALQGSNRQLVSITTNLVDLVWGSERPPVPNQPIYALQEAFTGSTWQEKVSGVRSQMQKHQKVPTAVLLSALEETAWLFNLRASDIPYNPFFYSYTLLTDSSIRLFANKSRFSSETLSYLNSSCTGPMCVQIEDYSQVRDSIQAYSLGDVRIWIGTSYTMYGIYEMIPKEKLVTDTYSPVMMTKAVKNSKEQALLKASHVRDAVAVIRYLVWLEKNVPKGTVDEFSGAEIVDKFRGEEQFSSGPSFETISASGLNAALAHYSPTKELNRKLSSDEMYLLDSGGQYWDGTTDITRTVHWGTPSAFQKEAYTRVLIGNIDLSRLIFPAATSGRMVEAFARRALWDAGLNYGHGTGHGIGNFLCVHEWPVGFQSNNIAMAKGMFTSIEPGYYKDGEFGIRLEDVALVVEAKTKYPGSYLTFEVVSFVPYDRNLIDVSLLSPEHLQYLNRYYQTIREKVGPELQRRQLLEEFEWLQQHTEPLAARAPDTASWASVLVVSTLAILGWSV
# Method: Human kidney tissue, which was obtained from the Cooperative Human Tissue Network, was the source of purified human APP2 as used herein. APP2 enzyme activity was measured during purification as described in Example 2B below. The membrane-bound APP2 was purified from human kidney tissue using the following steps: 1) kidney tissue was homogenized in 30 volumes of buffer containing Triton X-100 detergent and centrifuged; 2) the pellet was washed and suspended in buffer containing octyl-β-D-glucopyranoside detergent, and then centrifuged; 3) the supernatant was treated with 10 units of phosphatidylinositol-specific phospholipase C (Invitrogen, Eugene, Ga.) to remove the hydrophobic part of the glycosyl-phosphatidylinositol lipid membrane anchor from APP2, and then dialyzed; 4) the dialysate was passed through an octyl-Sepharose chromatography column; 5) the eluent was centrifuged and then concentrated by ultrafiltration in Amicon Ultra-15 Ultracel-10 k filters (Millipore Corp, Billerica, Mass.); 6) the retentate was dialyzed and applied to a HiTrap Q-Sepharose XL ion exchange chromatography column. Human APP2 enzyme activity was eluted with a linear KCl salt gradient.
# Human aminopeptidase P2 (APP2) enzyme activity was determined using the internally quenched fluorescent substrate: H-Lys(2-aminobenzoyl)-Pro-Pro-p-nitroanilide (Bachem, Torrance, Calif.) at 1 μM (=Km) for inhibitor studies and 5 μM for enzyme purification assays. The assay buffer was 0.1 M HEPES, pH 7.4, and the assay temperature was 30° C. Cleavage of the substrate by the enzyme produces an increase in fluorescence due to the release of H-Lys(2-aminobenzoyl). Enzyme rates were determined in an F. fluorescence plate reader (Molecular Devices, Sunnyvale, Calif.) using an excitation wavelength of 320 nm and an emission wavelength of 405 nm. The binding affinity of an inhibitor was estimated and expressed as IC50 values (the concentration that inhibits activity by 50%).
# Male CD-1(ICR) mice = assay: Bilateral renal ischemia/reperfusion in mice; format: in vivo, mouse; conditions: for reduction of blood urea nitrogen (BUN) compared to saline: i.v. 5 min before reperfusion after 25 min ischemia, BUN after 2 days of reperfusion, apstatin 1.8 mg/kg, ST-115 10 μg/kg; for mice that died before the prespecified 2-day BUN measurement point: saline control 29% died early
# Method: Previous studies have shown that the prototype APP2 inhibitor apstatin can greatly reduce ischemia/reperfusion damage in the heart. […] In this study, blood flow to both kidneys of the mouse was blocked for 25 min., producing ischemia. Blood flow was then restored (reperfusion). In order to determine the effects of inhibiting APP2 in this model of kidney damage, apstatin, ST-115, or saline (control) were administered intravenously 5 min. before reperfusion. After two days of reperfusion, blood urea nitrogen (BUN, a marker of kidney dysfunction) was measured. In FIG. 1, data are presented as the mean±standard error of the mean. Each drug was separately compared to the control by the unpaired t-test with Welch's correction. ** Apstatin vs. Saline, p<0.01; *** ST-115 vs. Saline, p<0.001.
# Male CD-1(ICR) mice (36-47 g) from Harlan Laboratories (Indianapolis, Ind.) were used. Each mouse was anesthetized by the subcutaneous injection of 50 mg/kg sodium pentobarbital (Akorn Inc, Lake Forest, Ill.) and placed on a 37° C. warmer. For surgery, the abdomen was shaved and the mouse was moved to a warming plate with feedback temperature control (TCAT-2DF, Harvard Apparatus Holliston, Mass.). The body temperature of the mouse was maintained at 36.9±0.1° C. throughout the procedure. The skin of the abdomen was washed with alcohol, and a midline incision was made to expose the kidneys. After removing adipose tissue from the renal pedicles, a microaneurysm clamp was placed on each pedicle to block blood flow to/from both kidneys for 25 min. (referred to as the ischemia phase). At the 20 min. point, 0.15 ml of either saline or saline containing drug (apstatin or ST-115) was administered intravenously through the femoral vein. The doses were 1.8 mg/kg for apstatin and 10 μg/kg for ST-115. At 5 minutes after drug injection, the clamps were removed from the pedicles to restore blood flow to/from the kidneys (the reperfusion phase). After confirming reperfusion, a subcutaneous injection of saline was administered in the upper thigh for rehydration, and the incision was sutured closed. Regulated temperature control was maintained for at least the first 0.5 hours of reperfusion. The mouse was then placed on a 37° C. warmer to recover from the anesthetic and then moved to the home cage. After 2 days of reperfusion, the mouse was sacrificed by exsanguination. The blood was allowed to clot and then centrifuged to obtain serum. The serum was assayed for its concentration of urea (Blood Urea Nitrogen—BUN), a marker of kidney damage, using a kit from Stanbio (Boerne, Tex.). […] The BUN data points (20) were analyzed by comparing the values for each drug with those of the saline control using the unpaired t-test with Welch's correction (Graphpad Prism statistical package, La Jolla, Calif.).
# isolated perfused heart = conditions: ischemia/reperfusion (Ersahin et al. 1999); cited from earlier work
# Chain of Human recombinant angiotensin-converting enzyme (hrACE) (P12821 30-1306): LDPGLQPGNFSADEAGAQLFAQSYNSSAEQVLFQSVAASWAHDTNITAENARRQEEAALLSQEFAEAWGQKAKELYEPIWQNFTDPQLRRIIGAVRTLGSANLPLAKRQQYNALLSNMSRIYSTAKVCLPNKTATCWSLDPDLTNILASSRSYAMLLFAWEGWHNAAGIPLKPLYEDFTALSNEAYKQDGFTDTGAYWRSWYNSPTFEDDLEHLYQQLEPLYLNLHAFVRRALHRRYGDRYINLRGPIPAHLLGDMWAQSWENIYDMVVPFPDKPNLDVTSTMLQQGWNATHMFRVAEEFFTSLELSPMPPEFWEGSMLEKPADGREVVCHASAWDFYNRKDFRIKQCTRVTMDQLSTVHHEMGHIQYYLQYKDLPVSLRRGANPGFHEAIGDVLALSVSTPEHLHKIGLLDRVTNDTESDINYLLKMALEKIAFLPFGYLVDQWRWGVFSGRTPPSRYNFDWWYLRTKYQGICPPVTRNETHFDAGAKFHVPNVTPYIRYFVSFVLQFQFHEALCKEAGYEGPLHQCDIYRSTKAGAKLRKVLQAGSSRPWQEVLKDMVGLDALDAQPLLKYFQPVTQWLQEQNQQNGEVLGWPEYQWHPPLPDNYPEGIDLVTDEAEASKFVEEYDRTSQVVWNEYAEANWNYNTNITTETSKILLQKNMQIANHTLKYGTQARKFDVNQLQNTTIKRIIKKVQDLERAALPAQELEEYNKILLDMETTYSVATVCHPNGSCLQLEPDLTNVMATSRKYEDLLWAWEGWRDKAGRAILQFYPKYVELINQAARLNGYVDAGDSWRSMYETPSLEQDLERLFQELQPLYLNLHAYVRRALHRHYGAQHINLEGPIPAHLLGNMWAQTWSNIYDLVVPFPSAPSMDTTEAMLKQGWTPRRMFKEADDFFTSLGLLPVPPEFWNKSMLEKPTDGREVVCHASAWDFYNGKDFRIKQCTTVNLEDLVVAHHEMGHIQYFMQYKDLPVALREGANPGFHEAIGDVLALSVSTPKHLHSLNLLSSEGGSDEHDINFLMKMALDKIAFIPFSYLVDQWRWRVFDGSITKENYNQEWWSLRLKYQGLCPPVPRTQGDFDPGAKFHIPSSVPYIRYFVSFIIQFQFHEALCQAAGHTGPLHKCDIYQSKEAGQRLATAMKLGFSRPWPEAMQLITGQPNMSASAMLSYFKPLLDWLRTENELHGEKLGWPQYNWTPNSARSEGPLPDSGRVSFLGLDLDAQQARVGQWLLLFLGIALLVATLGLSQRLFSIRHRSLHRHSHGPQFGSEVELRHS
Compound,IC50 [1],IC50 [2],IC50 ratio ACE/APP2 [2],IC50 for human ACE [1],IC50 for human APP2 [2],reduction of blood urea nitrogen (BUN) compared to saline (Male CD-1(ICR) mice),mice that died before the prespecified 2-day BUN measurement point (Male CD-1(ICR) mice),reduction of cardiac damage (isolated perfused heart)
CC(C)C[C@H](S)C(=O)N1CCC[C@H]1C(=O)N1CCC[C@H]1C(=O)N1CC[C@H](C(=O)O)C1 [Formula V],49000 nM,26 nM,"1,900",,,,,
CC(C)C[C@H](S)C(=O)N1CCC[C@H]1C(=O)N1CCC[C@H]1C(=O)N(C)[C@@H](C)C(=O)O [Formula VII],640 nM,3.9 nM,160,,,,,
"CC(C)C[C@H](S)C(=O)N1C[C@@H](F)C[C@H]1C(=O)N1CCC[C@H]1C(=O)N1CC[C@@H](C(=O)O)C1 [Formula III, [(S)-2-mercapto-4-methylpentanoyl]-4(S)-fluoro-Pro-Pro-[(3R)-β-Pro]-OH]",68000 nM,3.7 nM,"18,000","68,000 nM/L",3.7 nM/L,56%,no apstatin or ST-115 treated mice died early,
C[C@H](NC(=O)[C@@H]1CCCN1C(=O)[C@@H]1CCCN1C(=O)[C@@H](O)[C@H](N)Cc1ccccc1)C(N)=O [apstatin],,,,,,49%,no apstatin or ST-115 treated mice died early,74%
CC(C)C[C@H](S)C(=O)N1CCC[C@H]1C(=O)N1CCC[C@H]1C(=O)N1CCC[C@@H]1C(=O)O [Formula VI],12000 nM,9.7 nM,"1,200",,,,,
